The results in this text go back to patent US11840560B2, “Prodrugs and uses thereof” (Novo Nordisk A/S, priority 2022, dated 2023).

The nature of series [1]: physchem. The format is physicochemical. The note with it: buffer, pH 7.4. The method, then: The assay was performed to investigate the conversion half-life of prodrug to drug of the prodrugs of the invention. The conversion half-life was investigated in vitro at pH 7.4 upon incubation at 37° C.
Test compounds were dissolved to a concentration of 100 μM in phosphate-buffered saline (140 mM NaCl, 2.07 mM KCl, 8.05 mM Na2HPO4, 1.96 mM KH2PO4, pH 7.4). Solution pH was measured after dissolution and adjusted to pH 7.4 with aqueous NaOH if necessary. The solution was filtered through a 0.22 μm syringe filter, then incubated in a water bath at 37° C. Aliquots were withdrawn at defined timepoints, e.g. every 24-72 hours, for LCMS analysis.
LCMS analysis was performed using the procedure defined in LCMS_A above. The AUC of the prodrug, active drug, and DKP were determined using UV detection at 214 nm, and the ratio of prodrug AUC over total AUC of prodrug plus active drug plus DKP was calculated. The negative natural logarithm of this ratio was plotted over time, and a linear regression of this relationship was then performed.
The prodrug to drug conversion half-life of the compounds of the invention was measured as described in General Methods for Measuring Conversion Half-life.

The nature of series [2]: in vivo. Further details: species or system beagle dogs. The note with it: dog, po, 300 mg; for Tmax / half-life: male, beagle. The protocol:
The purpose of this method is to determine the terminal half-life and plasma exposure in vivo of the compounds of the present invention after p.o. administration to beagle dogs, i.e. the terminal half-life and concentration of test substance that reaches circulation with time. This is done in a pharmacokinetic (PK) study, where these parameters of the compound in question are determined. By terminal half-life is generally meant the period of time it takes to halve a certain plasma concentration, measured after the initial distribution phase.
Tablet compositions comprising the test compounds obtained from Example 1 and SNAC (sodium N-(8-(2-hydroxybenzoyl)amino)caprylate) were prepared according to methods known to the person skilled in the art by mixing test substance with roller compacted SNAC and magnesium stearate as e.g. described in WO 2019/149880. Each tablet was comprised of 7.7 mg magnesium stearate, 2-4 mg of each compound tested, and 300 mg SNAC.
Male beagle dogs, 1-7 years of age and weighing 9-17 kg during the study period, were included in the study. The dogs were dosed in a fasting state. The dogs were group housed in pens (12 hours light: 12 hours dark), and fed individually and restrictedly once daily with Royal Canin Medium Adult dog food (Royal Canin Products, China Branch, or Brogaarden A/S, Denmark). The dogs were used for repeated PK studies with a suitable wash-out period between successive dosing. An appropriate acclimatisation period was given prior to initiation of the first PK study. All handling, dosing, and blood sampling of the animals were performed by trained and skilled staff. Before the studies, the dogs were fasted overnight and from 0 to 4 hours after dosing. The dogs were restricted to water 1 hour before dosing until 4 hours after dosing, but otherwise had adlibitum access to water during the whole period.
The compositions were administered by a single oral dosing to the dogs in groups of 6-8 dogs. The tablets were administered in the following manner: 10 min prior to tablet administration, the dogs may be dosed subcutaneously with approximately 3 nmol/kg of SEQ ID NO.: 7 ([…]), then tablets were placed in the back of the mouth of the dog to prevent chewing. The mouth was then closed, and 10 mL of tap water was given by syringe or gavage to facilitate swallowing of the tablet.
One blood sample was drawn before dosing, and additional samples were drawn at predefined time points after dosing, such as for up to 600 hours, to adequately cover the full plasma concentration-time absorption profile of the test substance. For each blood sample time point, approximately 0.8 mL of whole blood was collected in a 1.5 mL EDTA-coated tube, which was gently turned to mix the sample with EDTA. Blood samples were collected in EDTA buffer (8 mM) and then centrifuged at 4° C. and 2000 g for 10 minutes. Plasma was pipetted into Micronic tubes on dry ice, and kept at −20° C. or lower until analysis. Blood samples were taken as appropriate, for example from a venflon in the cephalic vein in the front leg for the first 2 hours and then with syringe from the jugular vein for the rest of the time points. The first few drops were allowed to drain from the venflon to avoid heparin saline from the venflon in the sample. All blood samples were collected into test tubes containing EDTA for stabilisation and kept on ice until centrifugation. Plasma was separated from whole blood by centrifugation and the plasma was stored at −20° C. or lower until analysis.
The plasma was analysed for test substance using LC-MS (Liquid Chromatography-Mass Spectrometry) as known to the person skilled in the art. […]

Series [3] can be described thus: in vivo. The note with it: female, Göttingen, minipig, iv. Further details: species or system Göttingen minipigs. The protocol:
The purpose of this method is to determine the half-life in vivo of the derivatives of the present invention after i.v. administration to minipigs, i.e. the prolongation of their time in the body and thereby their time of action. This is done in a pharmacokinetic (PK) study, where the terminal half-life of the derivative in question is determined. By terminal half-life is generally meant the period of time it takes to halve a certain plasma concentration, measured after the initial distribution phase.
Female Göttingen minipigs were obtained from Ellegaard Göttingen Minipigs (Dalmose, Denmark) approximately 7-14 months of age and weighing from approximately 16-35 kg were used in the studies. The minipigs were housed individually and fed restrictedly once daily with SDS minipig diet (Special Diets Services, Essex, UK).
After at 3 weeks of acclimatisation two permanent central venous catheters were implanted in vena cava caudalis in each animal. The animals were allowed 1 week recovery after the surgery, and were then used for repeated pharmacokinetic studies with a suitable wash-out period between successive derivative dosing.
The animals were fasted for approximately 18 hours before dosing and from 0 to 4 hours after dosing but had ad libitum access to water during the whole period.
The sodium salts of compounds of Examples 1 were prepared using method SX_A under General Methods for preparation of the compounds of the invention. The resulting sodium salts were dissolved to a concentration of 50-300 nmol/mL in a buffer containing 0.007% polysorbate 20, 50 mM sodium phosphate, 70 mM sodium chloride, pH 7.4. Intravenous injections (the volume corresponding to usually 1-20 nmol/kg, for example 0.02-0.05 mL/kg) of the compounds were given through one catheter, and blood was sampled at predefined time points for up to 21 days post dosing (preferably through the other catheter). Blood samples (for example 0.8 mL) were collected in 8 mM EDTA buffer and then centrifuged at 4° C. and 1942 g for 10 minutes.
Plasma was pipetted into Micronic tubes on dry ice and kept at −20° C. until analysed for plasma concentration of the compounds using ELISA, or a similar antibody-based assay, or LCMS. Individual plasma concentration-time profiles were analysed by a non-compartmental model in Phoenix WinNonLin ver. 6.4. (Pharsight Inc., Mountain View, CA, USA), and the resulting terminal half-lives (harmonic mean) determined.
The terminal half-lives and/or the observed terminal half-lives, measured as described herein in General Methods for Measuring Terminal Half-Life in Minipigs are shown in Table 7. […] This provides evidence that conversion of prodrug to parent compound is occurring in vivo. The terminal half-life of the prodrug may be faster or slower than the corresponding parent compound due to the contribution of conversion on the terminal half-life of the prodrug.

*1 amine or outer side, *2 acyl side, *3 side chain or, on linkers, in order; H or OH if unused. Where a SMILES comes first, the peptide text is derived from it. Side-chain parts run from the residue outwards. [ ]: non-standard residue; d: D form. The star is where a group is joined. X1 = O=C(O)CCCCCCCCCCCCCCC(=O)N[C@@H](CCC(=O)NCCCC[C@H](NC(=O)CC[C@H](NC(=O)CCCCCCCCCCCCCCC(=O)O)C(=O)O)C(=O)*)C(=O)O; N(2-Aminoethyl)Gly = O=C(CN(CCN[*:3])[*:1])[*:2]; C18 diacid = O=C(O)CCCCCCCCCCCCCCCCC(=O)*; C16 diacid = O=C(O)CCCCCCCCCCCCCCC(=O)*; γGlu = O=C(O)[C@H](CCC(=O)[*:2])N[*:1]; εLys = N[C@@H](CCCCN[*:1])C(=O)[*:2]; AEEA = NCCOCCOCC(=O)O; Aib = CC(C)(N)C(=O)O; Sar = CNCC(=O)O

As a reminder, the half-life is the time in which the quantity being followed falls by half. Read a high half-life as slow loss. In general, Tmax refers to the time at which the peak concentration occurs. “H-G[N(2-Aminoethyl)Gly]([γGlu-C16 diacid])Y[Aib]EGTFTSDYSILLEEQAAREFIEWLLAGGPSK([AEEA-AEEA-γGlu-C16 diacid])GAPPPS-OH [Compound 2]” had a half-life at 100 μM in series [1] of 363 h. Besides, in series [2], the AUC/Dose was 22.9 kg·h/L, the Cmax/Dose was found to be 0.18 kg/L, the Tmax worked out at 4 h and the half-life was 142 h.

In series [1], “H-L[N(2-Aminoethyl)Gly]([γGlu-C16 diacid])Y[Aib]EGTFTSDYSILLEEQAAREFIEWLLAGGPSK([AEEA-AEEA-γGlu-C16 diacid])GAPPPS-OH [Compound 5]” gave a half-life at 100 μM of 74 h. In addition, in series [2], the AUC/Dose is 23.4 kg·h/L, the Cmax/Dose turned out to be 0.25 kg/L, the time of peak concentration (Tmax) turned out to be 7 h and the half-life is 106 h.

Regarding `CC[C@H](C)[C@H](NC(=O)[C@H](CC(C)C)NC(=O)[C@H](Cc1c[nH]c2ccccc12)NC(=O)[C@H](CCC(N)=O)NC(=O)[C@@H](NC(=O)[C@H](Cc1ccccc1)NC(=O)[C@H](C)NC(=O)[C@H](CCCCNC(=O)COCCOCCNC(=O)COCCOCCNC(=O)CC[C@H](NC(=O)CCCCCCCCCCCCCCCCCCC(=O)O)C(=O)O)NC(=O)[C@H](CCC(N)=O)NC(=O)[C@H](C)NC(=O)[C@@H](NC(=O)[C@H](CCCCN)NC(=O)[C@H](CC(=O)O)NC(=O)[C@H](CC(C)C)NC(=O)C(C)(C)NC(=O)[C@@H](NC(=O)[C@H](CO)NC(=O)[C@H](Cc1ccc(O)cc1)NC(=O)[C@H](CC(=O)O)NC(=O)[C@H](CO)NC(=O)[C@@H](NC(=O)[C@H](Cc1ccccc1)NC(=O)[C@@H](NC(=O)CNC(=O)[C@H](CCC(=O)O)NC(=O)C(C)(C)NC(=O)[C@H](Cc1ccc(O)cc1)NC(=O)CN(C)C(=O)[C@@H](N)CCCCNC(=O)CC[C@H](NC(=O)CCCCCCCCCCCCCCC(=O)O)C(=O)O)[C@@H](C)O)[C@@H](C)O)[C@@H](C)CC)[C@@H](C)CC)C(C)C)C(=O)N[C@@H](C)C(=O)NCC(=O)NCC(=O)N1CCC[C@H]1C(=O)N[C@@H](CO)C(=O)N[C@@H](CO)C(=O)NCC(=O)N[C@@H](C)C(=O)N1CCC[C@H]1C(=O)N1CCC[C@H]1C(=O)N1CCC[C@H]1C(=O)N[C@@H](CO)C(N)=O` [Compound 18], the half-life at 100 μM in series [1] is 101 h. For the same compound, in series [2], the AUC/Dose came out at 13.3 kg·h/L, the Cmax/Dose is on record as 0.15 kg/L, the Tmax was determined as 4 h and the half-life was 88 h.

Consider `CC[C@H](C)[C@H](NC(=O)[C@H](Cc1ccccc1)NC(=O)[C@H](CCC(=O)O)NC(=O)[C@H](CCCNC(=N)N)NC(=O)[C@H](C)NC(=O)[C@H](C)NC(=O)[C@H](CCC(N)=O)NC(=O)[C@H](CCC(=O)O)NC(=O)[C@H](CCC(=O)O)NC(=O)[C@H](CC(C)C)NC(=O)[C@H](CC(C)C)NC(=O)[C@@H](NC(=O)[C@H](CO)NC(=O)[C@H](Cc1ccc(O)cc1)NC(=O)[C@H](CC(=O)O)NC(=O)[C@H](CO)NC(=O)[C@@H](NC(=O)[C@H](Cc1ccccc1)NC(=O)[C@@H](NC(=O)CNC(=O)[C@H](CCC(=O)O)NC(=O)C(C)(C)NC(=O)[C@@H](N)Cc1ccc(O)cc1)[C@@H](C)O)[C@@H](C)O)[C@@H](C)CC)C(=O)N[C@@H](CCC(=O)O)C(=O)N[C@@H](Cc1c[nH]c2ccccc12)C(=O)N[C@@H](CC(C)C)C(=O)N[C@@H](CC(C)C)C(=O)N[C@@H](C)C(=O)NCC(=O)NCC(=O)N1CCC[C@H]1C(=O)N[C@@H](CO)C(=O)N[C@@H](CCCCNC(=O)[C@@H](N)CCCCNC(=O)[C@@H](N)CCCCNC(=O)CC[C@H](NC(=O)CCCCCCCCCCCCCCC(=O)O)C(=O)O)C(=O)NCC(=O)N[C@@H](C)C(=O)N1CCC[C@H]1C(=O)N1CCC[C@H]1C(=O)N1CCC[C@H]1C(=O)N[C@@H](CO)C(=O)O` [Parent compound 2] (H-Y[Aib]EGTFTSDYSILLEEQAAREFIEWLLAGGPSK([εLys-εLys-γGlu-C16 diacid])GAPPPS-OH), for which the half-life in series [3] is 104 h.

For the compound “H-K([γGlu-C18 diacid])[Sar]Y[Aib]EGTFTSDYSILLEEQAAREFIEWLLAGGPSK([εLys-εLys-γGlu-C18 diacid])GAPPPS-OH [Compound 15]”, the half-life at 100 μM in series [1] is 127 h. In series [2], the AUC/Dose was determined as 21.7 kg·h/L, the Cmax/Dose is listed as 0.20 kg/L, the Tmax turned out to be 1.5 h and the half-life is 124 h.

As for “H-K([γGlu-C16 diacid])[Sar]Y[Aib]EGTFTSDYSILLEK([εLys-εLys-γGlu-C18 diacid])QAAREFIEWLLAGGPSSGAPPPS-OH [Compound 16]”, the half-life at 100 μM in series [1] was 117 h. In addition, in series [2], the AUC/Dose stood at 67.6 kg·h/L, the Cmax/Dose was 0.73 kg/L, the time to peak (Tmax) worked out at 4 h and the half-life is 96 h.

“H-K(X1)[Sar]Y[Aib]EGTFTSDYSILLEEQAAREFIEWLLAGGPSK([εLys-εLys-γGlu-C16 diacid])GAPPPS-OH [Compound 14]” gave a half-life at 100 μM in series [1] of 166 h. Further, in series [2], the AUC/Dose amounted to 43.6 kg·h/L, the Cmax/Dose stood at 0.38 kg/L, the Tmax came out at 5.5 h and the half-life is 119 h.

For the compound “H-K([γGlu-C16 diacid])[Sar]Y[Aib]EGTFTSDYSILLEEQAAREFIEWLLAGGPSK([εLys-εLys-γGlu-C16 diacid])GAPPPS-OH [Compound 12]”, the half-life at 100 μM in series [1] is 129 h. In series [2], the AUC/Dose was found to be 50.8 kg·h/L, the Cmax/Dose came out at 0.46 kg/L, the Tmax was 1.3 h and the half-life is 143 h.
